molecular target: T1, Receptor-interacting serine/threonine-protein kinase 1 (Homo sapiens, UniProt Q13546); test: Inhibition of recombinant N-terminal GST-tagged human RIPK1 (1 to 327 residues) expressed in baculovirus infected Sf9 insect cells preincubated for 40 mins followed by substrate addition and measured after 60 mins by ADP-glo luminescence assay
T1 sequence (Q13546 whole entry): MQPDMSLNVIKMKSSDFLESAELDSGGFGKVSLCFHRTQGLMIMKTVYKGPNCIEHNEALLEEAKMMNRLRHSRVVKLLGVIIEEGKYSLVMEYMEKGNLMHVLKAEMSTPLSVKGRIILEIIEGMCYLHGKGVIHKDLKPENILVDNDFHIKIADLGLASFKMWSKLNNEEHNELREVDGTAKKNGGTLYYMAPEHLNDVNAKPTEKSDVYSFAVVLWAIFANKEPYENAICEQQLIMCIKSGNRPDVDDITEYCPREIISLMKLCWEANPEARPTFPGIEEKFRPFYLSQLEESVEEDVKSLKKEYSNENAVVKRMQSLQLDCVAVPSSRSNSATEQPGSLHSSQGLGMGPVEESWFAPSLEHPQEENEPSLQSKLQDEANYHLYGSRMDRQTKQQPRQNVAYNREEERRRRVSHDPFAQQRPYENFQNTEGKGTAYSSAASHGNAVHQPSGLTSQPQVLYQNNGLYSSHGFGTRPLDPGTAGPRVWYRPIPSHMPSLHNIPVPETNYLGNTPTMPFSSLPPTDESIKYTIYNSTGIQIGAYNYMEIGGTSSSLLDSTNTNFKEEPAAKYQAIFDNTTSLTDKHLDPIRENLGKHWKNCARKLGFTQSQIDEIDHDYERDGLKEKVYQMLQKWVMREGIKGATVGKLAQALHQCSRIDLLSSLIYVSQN

| SMILES | EC50 [nM] |
| --- | --- |
| O=C(N1CC(Sc2ccc(Br)cc2)C1)N1N=CC[C@H]1c1cc(F)cc(F)c1 | 5.9 |
| O=C(c1ccccc1)C1CN(C(=O)N2N=CC[C@H]2c2cc(F)cc(F)c2)C1 | 5.6 |

Now those with a lower EC50, led by results:

| EC50 [nM] | SMILES |
| --- | --- |
| 3.8 | O=C(N1CC(Oc2ccccc2)C1)N1N=CC[C@H]1c1cc(F)cc(F)c1 |
| 3.1 | O=C(N1CC(Oc2ccccc2F)C1)N1N=CC[C@H]1c1cc(F)cc(F)c1 |
| < 5.1 | C[C@H]1[C@@H](Oc2ccc(F)cc2)CN1C(=O)N1N=CC[C@H]1c1ccc(Cl)cc1 |
